Measurements published in patent publication US7776597B2, “Method of inducing embryonic stem cells into pancreatic cells” (Beijing Hua Yuan Bo Chuang Technology Limited, priority 2005, dated 2010).

Legend:
[1] = system: ES-R1 cells; experiment: RT-PCR analysis of marker gene expression in differentiated mouse ES cells; assay type: cell-based, mice; conditions: end of step 2
Protocol: (§1) Step 1, to induce embryonic body (EB) formation, ES cells were dissociated with trypsin and suspended into Petri dishes (Alpha medical instrument) with 10% FBS/DMEM without LIF. After 24 to 48 hours (See FIG. 1B), EBs were collected and re-plated into 10% FBS/DMEM without LIF in 1% Matrigel (BD Biosciences) coated dishes. Two hours later, EBs began to spread onto the dishes and were cultured in 10% FBS/DMEM with 100 ng/ml activin A (Sigma) for 24 hours. Then EBs were switched to 10% FBS/DMEM for 6-8 hours as an interval. After this interval, the differentiated EB cells were cultured in 10% FBS/DMEM with 10^−6 M RA (Sigma) for another 24 hours.
(§2) Step 3, to mature the insulin producing cells, the expanded cells in step 2 were switched to DMEM/F12 (Gibco-BRL) with N2 supplement (1:100, Gibco-BRL), B27 supplement (1:50 Gibco-BRL), 1 μg/ml Laminin (Sigma), 10 ng/ml bFGF (Sigma) and 10 mM nicotinamide (Sigma) and cultured for 3-5 days (Lumelsky N, Blondel O, Laeng P, et al. Differentiation of embryonic stem cells to insulin-secreting structures similar to pancreatic islets. Science 2001; 292:1389-1394.) The morphology of cells was observed under a Nikon phase-contrast microscope (TS-100).
Total RNA was extracted by Catrimox-14 kit (TaKaRa) from the cells in step 2 or step 3 which were induced by both with and without activin A and RA or with only one of them. […]

[2] = system: ES-R1 cells; experiment: Cell cluster formation on coated dishes during three-step induction; assay type: cell-based, mice; conditions: dish coating matrix, third step of induction
Protocol: as §1, §2

Row | Molecule | marker genes expressed (RT-PCR) [1] | cell cluster formation [2]
1 | CC1=C(/C=C/C(C)=C/C=C/C(C)=C/C(=O)O)C(C)(C)CCC1 [RA, All-trans retinoic acid] | express only hnf3β | –
2 | laminin | – | no cell clusters formed
3 | activin A: a member of TGF-β superfamily; disulfide-stabilized protein (protein, UniProt P08476 311-426, looked up) Inhibin beta A chain: GLECDGKVNICCKKQFFVSFKDIGWNDWIIAPSGYHANYCEGECPSHIAGTSGSSLSFHSTVINHYRMRGHSPFANLKSCCVPTKLRPMSMLYYDDGQNIIKKDIQNMIVEECGCS | mainly express hnf3β and pdx-1 | –
